Reference: ChEMBL document CHEMBL1759878, “Design of semisynthetic analogues and 3D-QSAR study of eunicellin-based diterpenoids as prostate cancer migration and invasion inhibitors” (Eur J Med Chem, 2011)
Active and inactive are the calls of the source. No cut-off for these calls is given here.

Columns and labels:
Type in all cases: functional, cell-based
PC-3 [1] = assay: Antimigratory activity against human PC3 cells assessed as inhibition of cell migration after 24 hrs by wound healing assay; conditions: PC-3, 24 h
PC-3 [2] = assay: Antiinvasive activity against human PC3 cells assessed as inhibition of cells invaded across basement membrane extract at 50 uM by calcein-acetomethylester fluorescence analysis
PC-3 [3] = assay: Antimigratory activity against human PC3 cells assessed as migrated cells measured under microscope at 37 uM after 24 hrs by wound healing assay relative to control

Row | Compound | IC50 (PC-3 [1]; read-out: IC50) [µM] | IC50 (PC-3 [1]; read-out: pIC50 (converted)) [µM] | Activity (PC-3 [2]) | Activity (PC-3 [3])
1 | C=C1CC[C@H](C(C)C)[C@@H]2[C@H]1[C@@H]1CC(=C)[C@@H](O)CC[C@](C)(O)[C@H]2O1 [CLADIELLISIN] | 88 | 88 | Active | 
2 | CC(=O)O[C@]1(C)CC[C@H](C(C)C)[C@@H]2[C@H]1[C@H]1C[C@]3(C)CCC[C@@](C)(O3)[C@@H]2O1 | 52 | 52 |  | 
3 | C=C1C[C@H]2O[C@H]([C@@H]3[C@@H](C(C)C)[C@H](O)C[C@@](C)(OC(C)=O)[C@@H]32)[C@](C)(OC(C)=O)CC[C@@H]1O [KLYSIMPLEXIN E] | 125 | 125 |  | 
4 | CCCC(=O)O[C@]1(C)CC[C@H](C(C)C)[C@@H]2[C@H]1[C@H]1C[C@](C)(O)[C@@H](O)CC[C@@](C)(OC(C)=O)[C@@H]2O1 [PACHYCLADIN A] | 5 | 5 |  | 
5 | C=C1CC[C@H](C(C)C)[C@@H]2[C@H]1[C@H]1C[C@](C)(O)[C@@H](O)CC[C@@](C)(OC(C)=O)[C@@H]2O1 [SCLEROPHYTIN B] | 160 | 159 |  | 
6 | C=C1CC[C@H](C(C)C)[C@@H]2[C@H]1[C@H]1C[C@](C)(O)[C@@H](OCC)CC[C@@](C)(O)[C@@H]2O1 [PATAGONICOL] | 76 | 76 |  | 
7 | C=C1CC[C@H](C(C)C)[C@@H]2[C@H]1[C@H]1C/C(C)=C\CC[C@@](C)(O)[C@@H]2O1 [6Z-CLADIELLIN] | 84 | 84 |  | 
8 | C=CCNC(=O)N(CC=C)C(=O)N(CC=C)C(=O)O[C@H]1CC[C@@](C)(O)[C@@H]2O[C@H](CC1=C)[C@H]1C(=C)CC[C@H](C(C)C)[C@H]12 | 97 | 97 |  | 
9 | C=C1CC[C@H](C(C)C)[C@@H]2[C@H]1[C@H]1CC(=C)[C@@H](OC(=O)NCCCCC)CC[C@@](C)(O)[C@@H]2O1 | 43 | 43 |  | 
10 | C=C1CC[C@H](C(C)C)[C@@H]2[C@H]1[C@H]1CC(=C)[C@@H](O)CC[C@@](C)(OC(C)=O)[C@@H]2O1 | 44 | 44 |  | 
11 | C=C1CC[C@H](C(C)C)[C@@H]2[C@H]1[C@H]1CC(=C)[C@@H](OC(=O)NCCCC)CC[C@@](C)(O)[C@@H]2O1 | 37 | 37 | Active | Active
12 | C=C1CC[C@H](C(C)C)[C@@H]2[C@H]1[C@H]1CC(=C)[C@@H](OC(=O)Nc3ccccc3)CC[C@@](C)(O)[C@@H]2O1 | 57 | 57 |  | 
13 | C=C1CC[C@H](C(C)C)[C@@H]2[C@H]1[C@H]1CC(=C)[C@@H](OC(=O)N(Cc3ccccc3)C(=O)NCc3ccccc3)CC[C@@](C)(O)[C@@H]2O1 | 30 | 30 | Active | 
14 | C=C1CC[C@H](C(C)C)[C@@H]2[C@H]1[C@H]1CC(=C)[C@@H](OC(C)=O)CC[C@@](C)(O)[C@@H]2O1 [PACHYCLADIN C] | 56 | 56 |  | 
15 | C=C1CC[C@H](C(C)C)[C@@H]2[C@H]1[C@H]1CC(=C)[C@@H](OC(C)=O)CC[C@@](C)(OC(C)=O)[C@@H]2O1 | 36 | 36 |  | 
16 | C=C1CC[C@H](C(C)C)[C@@H]2[C@H]1[C@H]1C[C@](C)(O)[C@@H](O)CC[C@@](C)(O)[C@@H]2O1 [SCLEROPHYTIN A] | 84 | 84 |  | 
17 | C=C1CC[C@H](C(C)C)[C@@H]2[C@H]1[C@H]1C[C@](C)(O)[C@@H](OC)CCC(C)(O)[C@@H]2O1 (single isomer, unassigned) [SCLEROPHYTIN F METHYL ETHER] | 59 | 59 |  | 
18 | C=C1CC[C@H](C(C)C)[C@@H]2[C@H]1[C@H]1CC(=C)[C@@H](OC(=O)NCCCCCCCC)CC[C@@](C)(O)[C@@H]2O1 | 122 | 122 |  | 
19 | C=C1C[C@H]2O[C@H]([C@@H]3[C@@H](C(C)C)[C@H](O)C[C@@](C)(OC(=O)CCC)[C@@H]32)[C@](C)(OC(C)=O)CC[C@@H]1O [PACHYCLADIN B] | 88 | 88 |  | 
20 | CC(=O)O[C@]1(C)CC[C@H](C(C)C)[C@@H]2[C@H]1[C@H]1C[C@](C)(O)[C@@H](O)CC[C@@](C)(OC(C)=O)[C@@H]2O1 [KLYSIMPLEXIN G] | 16 | 16 |  | 
21 | C=C1C[C@H]2O[C@H]([C@H]3[C@@H]2[C@](C)(OC(C)=O)CC[C@@H]3C(C)C)[C@@]2(C)CC[C@]1(O)O2 [PACHYCLADIN E] | 64 | 64 |  | 
22 | C=C1C[C@H]2O[C@H]([C@H]3[C@@H]2[C@]2(CC[C@@H]3C(C)C)CO2)[C@](C)(O)CC[C@@H]1OC(=O)N(Cc1ccccc1)C(=O)NCc1ccccc1 | 70 | 70 |  | 
23 | C=C1C[C@H]2O[C@H]([C@H]3[C@@H]2[C@]2(CC[C@@H]3C(C)C)CO2)[C@](C)(O)CC[C@@H]1O (relative stereo) | 160 | 160 | Active | 
24 | C=C1CC[C@H](C(C)C)[C@@H]2[C@H]1[C@H]1CC(=C)[C@@H](OC(=O)NCCCCl)CC[C@@](C)(O)[C@@H]2O1 | 67 | 67 |  | 
25 | C=C1CC[C@H](C(C)C)[C@@H]2[C@H]1[C@H]1CC(=C)[C@]3(O)CC[C@@](C)(O3)[C@@H]2O1 [PACHYCLADIN D] | 75 | 75 |  | 
26 | C=C1C[C@H]2O[C@H]([C@H]3[C@@H]2[C@]2(CC[C@@H]3C(C)C)CO2)[C@](C)(O)CC[C@@H]1OC(=O)NCCCC (relative stereo) | 90 | 90 |  | 
